Columns and labels:
TLR6 = biological target: T1, TLR6 (Homo sapiens, UniProt Q9Y2C9); assay: IL-6 ELISA in hPBMC with TLR6 ligand Pam2CSK4; format: cell-based; conditions: 24 h
T1 construct: in combination with TLR6 ligand Pam2CSK4 in hPBMC after 24 h of treatment; endogenous in cells; host or cells: hPBMC
T1 sequence (Q9Y2C9 32-796): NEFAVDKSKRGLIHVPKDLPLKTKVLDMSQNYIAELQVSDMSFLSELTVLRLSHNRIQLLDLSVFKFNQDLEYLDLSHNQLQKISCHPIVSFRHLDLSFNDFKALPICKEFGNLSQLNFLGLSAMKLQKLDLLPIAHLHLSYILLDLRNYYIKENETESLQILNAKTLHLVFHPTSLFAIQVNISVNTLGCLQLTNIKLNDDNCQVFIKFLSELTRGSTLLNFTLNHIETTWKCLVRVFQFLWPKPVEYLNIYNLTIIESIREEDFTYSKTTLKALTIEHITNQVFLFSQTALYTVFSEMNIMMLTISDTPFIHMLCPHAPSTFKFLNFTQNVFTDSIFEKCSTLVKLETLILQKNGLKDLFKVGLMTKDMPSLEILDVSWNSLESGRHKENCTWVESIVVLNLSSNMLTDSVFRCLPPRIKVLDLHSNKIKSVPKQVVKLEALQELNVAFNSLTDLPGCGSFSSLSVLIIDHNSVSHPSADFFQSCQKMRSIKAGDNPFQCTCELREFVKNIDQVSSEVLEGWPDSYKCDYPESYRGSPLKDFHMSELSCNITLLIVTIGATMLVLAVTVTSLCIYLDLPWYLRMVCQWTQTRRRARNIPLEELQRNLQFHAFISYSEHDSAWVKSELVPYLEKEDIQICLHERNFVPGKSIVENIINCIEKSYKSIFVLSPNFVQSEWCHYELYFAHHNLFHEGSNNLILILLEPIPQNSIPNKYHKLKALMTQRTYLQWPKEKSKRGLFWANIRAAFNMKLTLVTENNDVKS
Protocol: Compound 8 stimulates the TLR6 activities and upregulates the production of IL-6 cytokine in combination with TLR6 ligand Pam2CSK4 in hPBMC after 24 h of treatment as detected by ELISA (FIG. 9).

hPBMC = assay: Cytotoxicity in hPBMC (MTT); format: cell-based, human; conditions: 0.1, 1.0, 10, 100 and 1000 μM, 24 h
Protocol: The cells were treated with compounds and incubated for 24 h. Cell viability was assessed using MTT cell proliferation kit (Promega). All the compounds were not toxic to hPMBC (FIG. 12).

[1] = tested on: P. aeruginosa (ATCC-10145 GFP) infected skin wounds; assay: Murine skin wound infection with P. aeruginosa; format: in vivo, C57BL/6 mice
Protocol: Five groups of C57BL/6 mice (8-10 weeks old, n=4) were wounded on the dorsal surface. 25 ul containing 10^6 CFU/mL P. aeruginosa in a PBS suspension were pipetted onto the wound and allowed to absorb for at least 3 min. […] Subsequently and for the next 13 days, infected wounds were treated each alternate day with colistin, or with test compounds.

neonatal pups with BPD = assay: Hyperoxia mouse model of BPD (newborn pups); format: in vivo
Source text: Neonatal mice and humans undergo similar stages of lung development but differ with respect to the duration of each stage and its temporal relationship to gestational age. The lungs of the mouse born at term are in the saccular stage and are surfactant sufficient; this can be considered somewhat akin to a human preterm neonate in the same stage of lung development that has been exposed to a full complement of antenatal steroids (which is known to enhance surfactant production). In terms of mimicking the human condition, the most successful hyperoxia models are those that limit exposure to hyperoxia to the saccular stage of pulmonary development. The mouse BPD model involves exposing newborn mice (postnatal day 1 or PN1) to 100% oxygen till PN4 followed by recovery in room air (RA) for another 10 days.
After the recovery period, their lungs were harvested and processed for quantitative PCR, western blotting, histopathology and ELISA.
Each of the compounds 3, 8 or 32 encapsulated in PLGA nanoparticles referred as 3NP, 8NP and 32NP was instilled intranasally (IN) as nanosuspension to newborn pups on PN2 and PN4 at different doses (FIG. 28). After the recovery period, their lungs were harvested and processed for quantitative PCR, western blotting and histopathology and ELISA.
BPD is characterized by large simplified alveoli, inflammation, increased cell death, decreased cell proliferation, dysmorphic capillary configuration, and variable interstitial cellularity and/or fibroproliferation. […] This is determined by measuring the alveolar chord length, septal thickness and radial alveolar count (RAC). In BPD, the alveolar area increases which is characterized by increase in the diameter of the alveolar sacs, the septa become thickened (thus interfering in gaseous exchange) and the RAC, a parameter used to assess the complexity of terminal respiratory unit by pulmonologists, decreases as a result of arrested lung development.

TLR4 = TLR4 (Homo sapiens, UniProt O00206); assay: TLR4 inhibitory and activating activity in THP-1 cells; format: cell-based; parameters: endogenous in cells; host or cells: THP-1 monocytes, PMA-stimulated
TLR4, sequence (O00206 24-839): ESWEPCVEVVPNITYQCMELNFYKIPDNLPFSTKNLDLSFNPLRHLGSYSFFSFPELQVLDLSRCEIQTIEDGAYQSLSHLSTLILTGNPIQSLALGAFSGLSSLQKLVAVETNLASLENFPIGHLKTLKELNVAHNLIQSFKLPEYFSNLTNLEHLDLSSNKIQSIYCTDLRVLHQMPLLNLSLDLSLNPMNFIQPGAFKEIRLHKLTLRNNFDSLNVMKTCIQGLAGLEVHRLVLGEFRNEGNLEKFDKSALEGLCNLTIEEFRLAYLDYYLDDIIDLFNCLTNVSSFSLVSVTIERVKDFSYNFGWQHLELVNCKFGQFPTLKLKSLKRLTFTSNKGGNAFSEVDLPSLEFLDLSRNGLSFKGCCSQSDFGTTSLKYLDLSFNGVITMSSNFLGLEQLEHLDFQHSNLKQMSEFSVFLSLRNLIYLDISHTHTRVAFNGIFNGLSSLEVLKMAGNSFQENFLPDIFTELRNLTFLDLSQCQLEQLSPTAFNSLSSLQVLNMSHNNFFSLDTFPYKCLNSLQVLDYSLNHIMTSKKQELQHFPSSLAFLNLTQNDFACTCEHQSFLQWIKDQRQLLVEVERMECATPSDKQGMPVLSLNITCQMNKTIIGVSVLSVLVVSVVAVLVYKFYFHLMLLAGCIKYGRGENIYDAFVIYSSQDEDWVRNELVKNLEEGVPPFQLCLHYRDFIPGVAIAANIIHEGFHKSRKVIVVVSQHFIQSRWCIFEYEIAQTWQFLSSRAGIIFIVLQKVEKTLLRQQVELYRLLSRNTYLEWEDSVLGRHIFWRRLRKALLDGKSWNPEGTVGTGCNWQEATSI

## CC(=O)N[C@H]1[C@H](Oc2ccc([N+](=O)[O-])cc2)O[C@H](CO)[C@@H](O)[C@@H]1O [Compound 8, p-Nitrophenyl 2-acetamido-2-deoxy-β-D-glucopyranoside]
TLR6
  production of IL-6 cytokine: upregulates
hPBMC
  cytotoxicity in hPBMC: not toxic
[1]; 25 μl Colistin 4 μg/ml or compound 100 μg/ml, each alternate day
  wound closure at day 13: complete closure
[1]; 13 days post infection
  bacterial numbers versus untreated control: statistically significant reduction
[1]; H&E histology, day 13 post-injury
  re-epithelialization and granulation tissue versus controls: borderline non-significant
[1]; topical, 100 μM, C57BL6 mice
  CFU in tissues: decreased
  closure of P. aeruginosa infected skin wounds: effectively closed
Neonatal pups with BPD; 10 mg/kg, ELISA
  anti-inflammatory cytokine IL-10: increase
  inflammatory cytokines and chemokines (MIP-2, MCP-1, IL-17, IFN-Y, TNF-α, IL-1β, and IL-6): decreases
Neonatal pups with BPD; mouse model of BPD
  lung injury in neonatal pups with BPD: prevent lung injury
Neonatal pups with BPD; neonatal pups with BPD
  TLR4 inhibition in an in vivo model system: inhibit TLR4
Neonatal pups with BPD; saline IV and nanosuspension IN
  lung architecture: restored
TLR4
  TLR2/4 antagonist or TLR4 agonist activity as shown in Table-1: potent TLR2/4 antagonists
